Key:
[1] = test system: barnyardgrass; experiment: Test A pre-/postemergence greenhouse test; assay type: in vivo, Echinochloa crus-galli; conditions: for Barnyardgrass plant response rating: 0 to 100 scale
Method in brief: (§1)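 Pots of loam–sand soil sown with the test species are sprayed preemergence on the soil surface; emerged seedlings (1–2 leaves, 2–10 cm) are sprayed postemergence at the same time. The vehicle is a non-phytotoxic solvent mixture with surfactant. Injury is scored visually after ~10 d in greenhouse.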

[2] = test system: crabgrass; experiment: Test A pre-/postemergence greenhouse test; assay type: in vivo, Digitaria sanguinalis; conditions: for Crabgrass, Large plant response rating: 0 to 100 scale
Method in brief: as §1

[3] = test system: giant foxtail; experiment: Test A pre-/postemergence greenhouse test; assay type: in vivo, Setaria faberi; conditions: for Foxtail, Giant plant response rating: 0 to 100 scale
Method in brief: as §1

[4] = test system: morningglory; experiment: Test A pre-/postemergence greenhouse test; assay type: in vivo, Ipomoea spp.; conditions: for Morningglory plant response rating: 0 to 100 scale
Method in brief: as §1

[5] = test system: Italian ryegrass; experiment: Test C pre-/postemergence test; assay type: in vivo, Lolium multiflorum; conditions: Postemergence; for Plant response rating, Ryegrass, Italian: scale 0 to 100, 0 no effect, 100 complete control
Method in brief: (§2)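 Seeds were planted and treated preemergence with test chemical in a non-phytotoxic solvent mixture containing surfactant. Postemergence applications of the same formulation went onto plants 2 to 18 cm tall (1- to 4-leaf stage). A dash marks no test result.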

[6] = test system: bermudagrass; experiment: Test C pre-/postemergence test; assay type: in vivo, Cynodon dactylon; conditions: for Plant response rating, Bermudagrass: scale 0 to 100, 0 no effect, 100 complete control
Method in brief: as §2

[7] = test system: Surinam grass; experiment: Test C pre-/postemergence test; assay type: in vivo, Brachiaria decumbens; conditions: for Surinam Grass plant response rating: preemergence, scale 0 (no effect) to 100 (complete control); for Plant response rating, Surinam Grass: scale 0 to 100, 0 no effect, 100 complete control
Method in brief: as §2

[8] = test system: cocklebur; experiment: Test C pre-/postemergence test; assay type: in vivo, Xanthium strumarium; conditions: for Plant response rating, Cocklebur: scale 0 to 100, 0 no effect, 100 complete control
Method in brief: as §2

[9] = test system: crabgrass; experiment: Test C pre-/postemergence test; assay type: in vivo, Digitaria sanguinalis; conditions: for Plant response rating, Crabgrass, Large: scale 0 to 100, 0 no effect, 100 complete control
Method in brief: as §2

[10] = test system: Goosegrass; experiment: Test C pre-/postemergence test; assay type: in vivo, Eleusin indica; conditions: for Plant response rating, Goosegrass: scale 0 to 100, 0 no effect, 100 complete control
Method in brief: as §2

[11] = test system: kochia; experiment: Test C pre-/postemergence test; assay type: in vivo, Kochia scoparia; conditions: for Plant response rating, Kochia: scale 0 to 100, 0 no effect, 100 complete control
Method in brief: as §2

[12] = test system: lambsquarters; experiment: Test C pre-/postemergence test; assay type: in vivo, Chenopodium album; conditions: for Plant response rating, Lambsquarters: scale 0 to 100, 0 no effect, 100 complete control
Method in brief: as §2

[13] = test system: pigweed; experiment: Test C pre-/postemergence test; assay type: in vivo, Amaranthus retroflexus; conditions: for Plant response rating, Pigweed: scale 0 to 100, 0 no effect, 100 complete control
Method in brief: as §2

[14] = test system: soybean; experiment: Test C pre-/postemergence test; assay type: in vivo, Glycine max; conditions: for Plant response rating, Soybean: scale 0 to 100, 0 no effect, 100 complete control
Method in brief: as §2

[15] = test system: common (oilseed) sunflower; experiment: Test C pre-/postemergence test; assay type: in vivo, Helianthus annuus; conditions: for Sunflower plant response rating: preemergence, scale 0 (no effect) to 100 (complete control)
Method in brief: as §2

[16] = Postemergence, 125 g ai/ha, 0 is no effect, 100 is complete control
[17] = Postemergence, 500 g ai/ha, 0 is no effect, 100 is complete control
[18] = Preemergence, 125 g ai/ha, 0 no effect, 100 complete control
[19] = Preemergence, 500 g ai/ha, 0 to 100 scale where 0 is no effect and 100 is complete control
[20] = 31 g ai/ha, Preemergence, scale 0 to 100
[21] = 62 g ai/ha, preemergence, scale 0 (no effect) to 100 (complete control)
[22] = preemergence, 125 g ai/ha, scale 0 (no effect) to 100 (complete control)

Cn1nc(C(F)(F)F)c(C[S+]([O-])c2ccc(Cl)c[n+]2[O-])c1OC(F)F (stereo not shown) [Compound 6]
Barnyardgrass plant response rating [1, 16]: 80
Barnyardgrass plant response rating [1, 17]: 90
Barnyardgrass plant response rating [1, 18]: 100
Plant response rating, Barnyardgrass [1, 19]: 100
Crabgrass, Large plant response rating [2, 16]: 70
Crabgrass, Large plant response rating [2, 17]: 90
Crabgrass, Large plant response rating [2, 18]: 100
Plant response rating, Crabgrass, Large [2, 19]: 100
Foxtail, Giant plant response rating [3, 16]: 70
Foxtail, Giant plant response rating [3, 17]: 90
Foxtail, Giant plant response rating [3, 18]: 100
Plant response rating, Foxtail, Giant [3, 19]: 100
Morningglory plant response rating [4, 16]: 80
Morningglory plant response rating [4, 17]: 90
Morningglory plant response rating [4, 18]: 90
Plant response rating, Morningglory [4, 19]: 100
Plant response rating (0 to 100), Ryegrass, Italian ([5]; 31 g ai/ha): 0
Plant response rating (0 to 100), Ryegrass, Italian ([5]; 62 g ai/ha): 50
Plant response rating, Ryegrass, Italian ([5]; 125 g ai/ha): 85
Plant response rating, Ryegrass, Italian ([5]; 250 g ai/ha): 90
Bermudagrass plant response rating [6, 20]: 98
Bermudagrass plant response rating [6, 21]: 98
Plant response rating (0 to 100), Bermudagrass ([6]; Postemergence, 31 g ai/ha): 0
Plant response rating, Bermudagrass ([6]; Postemergence, 62 g ai/ha): 10
Plant response rating, Bermudagrass ([6]; Postemergence, 125 g ai/ha): 50
Plant response rating, Bermudagrass ([6]; Postemergence, 250 g ai/ha): 80
Plant response rating (0 to 100), Bermudagrass ([6]; Preemergence, 250 g ai/ha): 100
Bermudagrass plant response rating [6, 22]: 100
Surinam Grass plant response rating ([7]; 62 g ai/ha): 98
Plant response rating (0 to 100), Surinam Grass ([7]; Postemergence, 31 g ai/ha): 0
Plant response rating (0 to 100), Surinam Grass ([7]; Postemergence, 62 g ai/ha): 0
Plant response rating, Surinam Grass ([7]; Postemergence, 125 g ai/ha): 30
Plant response rating, Surinam Grass ([7]; Postemergence, 250 g ai/ha): 30
Plant response rating (0 to 100), Surinam Grass ([7]; Preemergence, 250 g ai/ha): 100
Surinam Grass plant response rating ([7]; 125 g ai/ha): 100
Cocklebur plant response rating [8, 20]: 0
Cocklebur plant response rating [8, 21]: 0
Plant response rating (0 to 100), Cocklebur ([8]; Postemergence, 31 g ai/ha): 0
Plant response rating, Cocklebur ([8]; Postemergence, 62 g ai/ha): 0
Plant response rating, Cocklebur ([8]; Postemergence, 125 g ai/ha): 0
Plant response rating, Cocklebur ([8]; Postemergence, 250 g ai/ha): 0
Plant response rating (0 to 100), Cocklebur ([8]; Preemergence, 250 g ai/ha): 0
Cocklebur plant response rating [8, 22]: 0
Crabgrass, Large plant response rating [9, 20]: 98
Crabgrass, Large plant response rating [9, 21]: 100
Plant response rating (0 to 100), Crabgrass, Large ([9]; Postemergence, 31 g ai/ha): 5
Plant response rating, Crabgrass, Large ([9]; Postemergence, 62 g ai/ha): 10
Plant response rating, Crabgrass, Large ([9]; Postemergence, 125 g ai/ha): 40
Plant response rating, Crabgrass, Large ([9]; Postemergence, 250 g ai/ha): 45
Plant response rating (0 to 100), Crabgrass, Large ([9]; Preemergence, 250 g ai/ha): 100
Crabgrass, Large plant response rating [9, 22]: 100
Goosegrass plant response rating [10, 20]: 98
Goosegrass plant response rating [10, 21]: 100
Plant response rating (0 to 100), Goosegrass ([10]; Postemergence, 31 g ai/ha): 0
Plant response rating, Goosegrass ([10]; Postemergence, 62 g ai/ha): 0
Plant response rating, Goosegrass ([10]; Postemergence, 125 g ai/ha): 20
Plant response rating, Goosegrass ([10]; Postemergence, 250 g ai/ha): 45
Plant response rating (0 to 100), Goosegrass ([10]; Preemergence, 250 g ai/ha): 100
Goosegrass plant response rating [10, 22]: 100
Kochia plant response rating [11, 21]: 0
Plant response rating (0 to 100), Kochia ([11]; Postemergence, 31 g ai/ha): 0
Plant response rating, Kochia ([11]; Postemergence, 62 g ai/ha): 0
Plant response rating, Kochia ([11]; Postemergence, 125 g ai/ha): 0
Plant response rating, Kochia ([11]; Postemergence, 250 g ai/ha): 0
Plant response rating (0 to 100), Kochia ([11]; Preemergence, 250 g ai/ha): 0
Lambsquarters plant response rating [12, 21]: 0
Plant response rating (0 to 100), Lambsquarters ([12]; Postemergence, 31 g ai/ha): 0
Plant response rating, Lambsquarters ([12]; Postemergence, 62 g ai/ha): 10
Plant response rating, Lambsquarters ([12]; Postemergence, 125 g ai/ha): 10
Plant response rating, Lambsquarters ([12]; Postemergence, 250 g ai/ha): 10
Plant response rating (0 to 100), Lambsquarters ([12]; Preemergence, 250 g ai/ha): 100
Pigweed plant response rating [13, 21]: 100
Plant response rating (0 to 100), Pigweed ([13]; Postemergence, 31 g ai/ha): 0
Plant response rating (0 to 100), Pigweed ([13]; Postemergence, 62 g ai/ha): 0
Plant response rating, Pigweed ([13]; Postemergence, 125 g ai/ha): 0
Plant response rating, Pigweed ([13]; Postemergence, 250 g ai/ha): 0
Plant response rating (0 to 100), Pigweed ([13]; Preemergence, 250 g ai/ha): 100
Soybean plant response rating [14, 20]: 0
Soybean plant response rating [14, 21]: 0
Plant response rating (0 to 100), Soybean ([14]; Postemergence, 31 g ai/ha): 5
Plant response rating (0 to 100), Soybean ([14]; Postemergence, 62 g ai/ha): 60
Plant response rating, Soybean ([14]; Postemergence, 125 g ai/ha): 70
Plant response rating, Soybean ([14]; Postemergence, 250 g ai/ha): 90
Plant response rating (0 to 100), Soybean ([14]; Preemergence, 250 g ai/ha): 50
Soybean plant response rating [14, 22]: 0
Sunflower plant response rating ([15]; 62 g ai/ha): 0
Plant response rating (0 to 100), Sunflower ([15]; Preemergence, 250 g ai/ha): 10
Sunflower plant response rating ([15]; 125 g ai/ha): 5

Source: patent US20100298141A1, “SUBSTITUTED PYRIDINE N-OXIDE HERBICIDES” (E. I. DU PONT DE NEMOURS AND COMPANY, priority 2007, published 2010)
